Consider eleven molecules from patent US6617354B1, “Method of stabilizing and potentiating the action of anti-angiogenic substances” (priority 2000, dated 2003).

For data set [1], the system named is tumor cells. As to the kind of experiment: Potentiation of anti-cancer drugs by PUFAs in tumor cells. The format is cell-based. The settings on record: combination with the fatty acid.
The subject of another data set is bone marrow cells. As to the kind of experiment: Side effects of gamma-radiation and cis-platinum to bone marrow cells of mice. The format is in vivo.
In a further data set the test system is skin papilloma. As to the kind of experiment: Skin papilloma in mice. The settings on record: pure fatty acid or fatty acid rich oils. In kind it is in vivo.
Data set [2] deals with TNF resistant L-929 tumor cells. As to the kind of experiment: TNF resistant L-929 tumor cells in vitro. The format is cell-based. The conditions noted are these: for killing of TNF resistant L-929 tumor cells: in vitro; for sensitisation of TNF-resistant L-929 cells to TNF: prior treatment with the fatty acid.
Data set [3] concerns tumor cells. As to the kind of experiment: PUFAs on tumor cells and normal cells in vitro. The format is cell-based. The settings on record: for tumor cell proliferation: in vitro; for selective killing of tumor cells versus normal cells: tumor cells and normal cells in vitro. An excerpt:
(§1) Tumor cells are not only deficient in PUFAs but also have low rate(s) of lipid peroxidation, contain relatively large amounts of antioxidants such as vitamin E and superoxide dismutase (SOD). It is also believed that low rates of lipid peroxidation and consequent low amounts of lipid peroxides in the cells can contribute to an increase in the mitotic process which ultimately leads to an increase in cell proliferation. Thus, a deficiency of PUFAs, high amounts of antioxidants and the presence of low amounts of lipid peroxides in the tumor cells can contribute to the growth of tumor cells.
Essential fatty acids are precursors of eicosanoids and are important structural components of cell membranes. They also provide the substrates for the generation of lipid peroxidation products which have an inhibitory action on cell proliferation. Tumor cells are known to have low delta-6-desaturase activity, an enzyme necessary for the desaturation of dietary linoleic acid (LA, 18:2, n-6) and alpha-linolenic acid (ALA, 18:3, n-3) to their respective products. […] This selective tumoricidal action of fatty acids seems to be mediated by free radicals and lipid peroxides.

A further data set concerns hepatoma. Kind of data set: Hepatoma in rats. The conditions noted are these: pure fatty acid or fatty acid rich oils. The format is in vivo.
For another data set, the system named is ascitic tumor cells. As to the kind of experiment: Ascitic tumor cells in the peritoneum of experimental animals. The format is in vivo. The settings on record: pure fatty acid or fatty acid rich oils.
The next data set relates to KB-chR 8-5 cells. Kind of data set: Vincristine resistant KB-8-5 tumor cells. The format is cell-based.
The test system of data set [4] is tumor cells. Kind of data set: Mixed culture of normal and tumor cells. The format is cell-based. The settings on record: normal and tumor cells grown together.
From the text: as §1

Data set [5] deals with subcutaneous hemangioendothelioma. The conditions noted are these: mice with subcutaneous hemangioendothelioma and disseminated intravascular coagulopathy; cited from earlier work.
The subject of another data set is E-selectin. The settings on record: proliferating endothelial cells; cited from earlier work.
The target in data set [6] is T1, alpha/beta sub-units of ATP synthase (Homo sapiens, UniProt P06576+P25705).
T1 construct: Using human umbilical endothelial vein endothelial cells; endogenous in cells; host or cells: human umbilical vein endothelial cells
The settings on record: human umbilical vein endothelial cells; cited from earlier work.

The test system of data set [7] is tumor cells. The conditions noted are these: cited from earlier work.
Data set [8] has as its system corneal plasminogen synthesis. The settings on record: cornea; cited from earlier work.

T1 sequence (P25705 44-553): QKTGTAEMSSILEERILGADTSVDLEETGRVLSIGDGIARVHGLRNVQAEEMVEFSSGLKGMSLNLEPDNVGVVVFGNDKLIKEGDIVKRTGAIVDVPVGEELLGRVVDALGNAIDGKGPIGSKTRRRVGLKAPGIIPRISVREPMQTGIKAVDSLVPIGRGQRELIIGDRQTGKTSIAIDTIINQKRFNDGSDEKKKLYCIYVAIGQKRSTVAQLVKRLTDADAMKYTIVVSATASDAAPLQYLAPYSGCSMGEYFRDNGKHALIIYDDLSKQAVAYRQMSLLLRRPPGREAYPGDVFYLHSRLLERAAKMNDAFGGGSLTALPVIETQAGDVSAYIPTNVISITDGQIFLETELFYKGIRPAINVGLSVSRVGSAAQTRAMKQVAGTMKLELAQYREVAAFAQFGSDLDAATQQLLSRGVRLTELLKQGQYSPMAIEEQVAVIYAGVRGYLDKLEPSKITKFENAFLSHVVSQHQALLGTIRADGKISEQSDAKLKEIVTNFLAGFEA
T1 sequence (P06576 48-529): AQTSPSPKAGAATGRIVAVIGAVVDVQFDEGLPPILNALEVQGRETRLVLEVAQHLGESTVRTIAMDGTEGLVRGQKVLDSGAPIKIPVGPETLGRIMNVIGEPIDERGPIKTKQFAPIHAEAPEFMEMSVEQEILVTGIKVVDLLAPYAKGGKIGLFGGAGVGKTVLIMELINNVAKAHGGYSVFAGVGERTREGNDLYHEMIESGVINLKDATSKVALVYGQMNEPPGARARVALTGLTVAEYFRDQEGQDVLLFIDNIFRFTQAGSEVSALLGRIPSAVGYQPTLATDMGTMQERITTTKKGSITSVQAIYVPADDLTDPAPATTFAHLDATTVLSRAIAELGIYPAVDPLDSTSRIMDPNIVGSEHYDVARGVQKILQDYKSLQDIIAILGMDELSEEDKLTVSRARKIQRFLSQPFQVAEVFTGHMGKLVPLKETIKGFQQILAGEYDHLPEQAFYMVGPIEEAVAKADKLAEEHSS
T1 sequence (P36542 26-298 partner): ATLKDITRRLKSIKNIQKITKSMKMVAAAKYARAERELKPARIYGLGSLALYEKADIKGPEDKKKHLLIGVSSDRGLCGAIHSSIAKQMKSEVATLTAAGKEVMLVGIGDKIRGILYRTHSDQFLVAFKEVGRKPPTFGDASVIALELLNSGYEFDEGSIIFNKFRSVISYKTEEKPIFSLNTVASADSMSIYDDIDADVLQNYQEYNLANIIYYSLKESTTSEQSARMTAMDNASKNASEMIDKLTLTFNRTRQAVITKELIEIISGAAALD
T1 sequence (P30049 23-168 partner): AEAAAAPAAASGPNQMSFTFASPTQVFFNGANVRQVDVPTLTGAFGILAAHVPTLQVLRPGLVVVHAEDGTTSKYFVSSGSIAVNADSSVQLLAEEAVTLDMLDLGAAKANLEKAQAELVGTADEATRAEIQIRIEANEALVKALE
T1 sequence (P56381 2-51 partner limits assumed): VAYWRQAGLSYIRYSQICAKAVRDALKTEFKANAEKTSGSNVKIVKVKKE

For the molecule `CCCCC/C=C\C/C=C\C/C=C\CCCCCCC(=O)O` [DGLA, dihomo-GLA], in the data set with tumor cells [1], the “cellular uptake of anti-cancer drugs by the tumor cells” value (“cellular uptake of anti-cancer drugs” below) is “enhance the cellular uptake”; the “cytotoxic action of doxorubicin, vincristine and cis-platinum” value (from here on “cytotoxic action of doxorubicin”) is given as “augmented”. Also, in the data set on bone marrow cells, the “side effects of gamma-radiation and cis-platinum to bone marrow cells” value (from here on “side effects”) is given as “prevent or ameliorate the side effects”. Besides, the “growth of skin papilloma” value in the data set on skin papilloma was “inhibit the growth”. In [2], the “killing of TNF resistant L-929 tumor cells” value is listed as “able to kill” and the “sensitisation of TNF-resistant L-929 cells to TNF” value is reported as “rendered TNF sensitive”. In addition, in the data set with tumor cells [3], the tumor cell proliferation entry was “decrease tumor cell proliferation” and the “selective killing of tumor cells versus normal cells” value (shortened to “selective killing”) is listed as “only tumor cells are killed”. Further, the “formation and growth of hepatoma” value in the data set with hepatoma is listed as “inhibit the growth”. The “growth of ascitic tumor cells in the peritoneum” value (“growth of ascitic tumor cells” for short) in the data set with ascitic tumor cells was “inhibit the growth”. In addition, the “sensitisation of vincristine resistant KB-8-5 cells to vincristine” value in the data set on KB-chR 8-5 cells is listed as “made sensitive”.

Turning to `CCCCC/C=C\C/C=C\C/C=C\C/C=C\CCCC(=O)O` [AA, arachidonic acid], in the data set with tumor cells [1], the “cellular uptake of anti-cancer drugs” value is listed as “enhance the cellular uptake”; the “cytotoxic action of doxorubicin” value is recorded as “augmented”. Further, the “selective tumoricidal action in mixed culture” value with tumor cells [4] is on record as “effective to some extent”. For the same molecule, in the data set with skin papilloma, the “growth of skin papilloma” value is listed as “inhibit the growth”. In addition, in data set [2], the “killing of TNF resistant L-929 tumor cells” value was “able to kill” and the “sensitisation of TNF-resistant L-929 cells to TNF” value was “rendered TNF sensitive”. In the data set on tumor cells [3], the tumor cell proliferation result is “decrease tumor cell proliferation” and the “selective killing” value is given as “only tumor cells are killed”. In addition, in the data set with hepatoma, the “formation and growth of hepatoma” value is “inhibit the growth”. The “growth of ascitic tumor cells” value with ascitic tumor cells is recorded as “inhibit the growth”. For the same molecule, the “sensitisation of vincristine resistant KB-8-5 cells to vincristine” value in the data set on KB-chR 8-5 cells is reported as “made sensitive”.

Turning to angiostatin®, in data set [5], the “size of the tumor” value was “significant reduction” and the survival entry is “increased survival”. Also, in the data set on E-selectin, the “effect on expression of E-selectin” value is listed as 4 to 5 fold. Moreover, the “binding to alpha/beta sub-units of ATP synthase” value in [6] is “bound in a concentration-dependent, saturable manner”.

Turning to `CC\C=C/C=C/C=C/C=C\CCCCCCCC(=O)O` [cis-parinaric acid], the “selective killing” value with tumor cells [3] is on record as “only tumor cells are killed”.

vitamin E: the “free radical generation and lipid peroxidation generated by PUFAs like GLA, EPA and DHA” value in the data set with tumor cells [7] is listed as “completely inhibit”.

On to `CCCCC/C=C\C/C=C\C/C=C\CCCCC(=O)O` [GLA, gamma-linolenic acid], for which, in the data set with tumor cells [1], the “cellular uptake of anti-cancer drugs” value is recorded as “enhance the cellular uptake”; the “cytotoxic action of doxorubicin” value is “augmented”. In the data set with bone marrow cells, the “side effects” value is recorded as “prevent or ameliorate the side effects”. In addition, in [2], the “killing of TNF resistant L-929 tumor cells” value is on record as “able to kill”. In addition, the tumor cell proliferation result with tumor cells [3] is given as “decrease tumor cell proliferation”. Besides, in the data set on hepatoma, the “formation and growth of hepatoma” value was “inhibit the growth”. For the same molecule, in the data set on ascitic tumor cells, the “growth of ascitic tumor cells” value is given as “inhibit the growth”.

For `CC/C=C\C/C=C\C/C=C\CCCCCCCC(=O)O` [ALA, alpha-linolenic acid], the “selective killing” value with tumor cells [3] is “only tumor cells are killed”.

Turning to `CCCCC/C=C\C/C=C\CCCCCCCC(=O)O` [LA, linoleic acid], in the data set on tumor cells [3], the “selective killing” value is “only tumor cells are killed”.

On to `CC/C=C\C/C=C\C/C=C\C/C=C\C/C=C\CCCC(=O)O` [EPA, eicosapentaenoic acid], for which, in the data set on tumor cells [1], the “cytotoxic action of doxorubicin” value is reported as “augmented”. In addition, the “side effects” value in the data set on bone marrow cells is listed as “prevent or ameliorate the side effects”.

interleukin-6: cytokine: in [8], the “decrease of corneal plasminogen synthesis” value is given as 40%.

In the case of `CC/C=C\C/C=C\C/C=C\C/C=C\C/C=C\C/C=C\CCC(=O)O` [DHA, docosahexaenoic acid], the “cytotoxic action of doxorubicin” value in the data set on tumor cells [1] is reported as “augmented”.
